Columns and labels:
[1] = test system: L. monocytogenes; experiment: L. monocytogenes challenge in hot dog plant chill brine at −20° C.; type: cell-based
Procedure: 1. Inoculate a separate tube containing approximately 10 ml of Brain Heart infusion (BHI) broth with the following L. monocytogenes strains: H2446 (CDC Global Standard), Scott A (serotype 4b), 12243 (serotype 1/2a), and two strains isolated from the environment of a cooked meat and poultry facility, designated WP1, and WP4. Incubate the tubes at least 5 days at 7-10° C.+/−2° C. 2. Assume the growth to be 10^9 cfu/ml. Serially dilute each culture in cold (˜7° C.). Butterfield's Phosphate Buffered Water (PBW) to 10^8 cfu/ml (1:10). Since five cultures of L. monocytogenes are being used as a cocktail, begin the dilution series using […] of each culture added to 99 ml of PBW. 3. Plate (−6, −7, −8) the diluted culture to get the starting count of the inoculum on Modified Oxford medium (MOX) using a thin agar overlay (TAL) technique (overlay with Trypticase Soy Agar [TSA]) to revive injured cells. 4. Add 1 ml of the diluted cocktail to 100 ml of cold test solution. 5. Mix the solutions well. 6. Determine the L. monocytogenes population at time 0 and 4 hours. Plate −1 (0.1 ml on 1 plate), −2, −3, and −4 dilutions using spread plates on MOX TAL with TSA. 7. Incubate the test solutions at test temperature for the duration of the experiment. 8. Incubate the MOX TAL with TSA plates at 20° C.+/−2° C. for 72+/−3 hours. Count representative colonies, which are black, and multiply by the dilution factor. […]

[2] = test system: L. monocytogenes; experiment: L. monocytogenes kill in cold salt/acid/surfactant solutions; type: cell-based
Procedure: To study chilling brine application of the current embodiment, tests were run on 17% by weight solutions of formulas consisting of between 0.3% and 6.0% citric acid, between 50 and 500 ppm SLS, and between 94% and 99.7% sodium chloride. Test solutions were cooled to −7° C. and inoculated with several strains of L. monocytogenes.
An experiment was run to determine if solutions containing sodium chloride, sodium lauryl sulfate, and various acids would kill L. monocytogenes at cold temperatures. […] A 1.0 ml aliquot of this suspension was added to 100 ml of cold (−7° C.+2° C.) test solution and mixed well, providing an initial inoculum of 10^3 CFU/ml. The test solutions were incubated at −7° C.+/−2° C. for the duration of the experiment. At intervals of 0, 4, and 24 hours the L. monocytogenes populations in the test solutions were determined on Modified Oxford agar (MOX). MOX plates were incubated at 35° C.+/−2° C. for approximately 48 hours. Colonies were then counted and compared to the initial inoculum counts.
Each test solution was a 17% by weight solution of the listed formula prepared in soft water.
In another experiment, 17% by weight solutions of formulas containing various levels of sodium chloride, citric acid, and sodium lauryl sulfate were tested for effectiveness in killing L. monocytogenes at cold temperatures. The same test procedure was used as described above, except test solutions were plated on MOX with a Thin Agar Overlay of TSA (to aid in the recovery of injured cells).
In another experiment, two sets of solutions were tested. The first set (samples 1-12 in Table 10 below) was prepared in hard tap water and contained about 17.0% by mass of the formulation. These samples were inoculated with 10^3 CFU/ml L. monocytogenes by the same procedure as described above. A second set of samples was prepared from brine taken from a ready-to-eat meat processing operation. The recirculated brine had been used to chill packaged meat for one week. After a week of use the brine typically contains various types of aerobic psychotropic and mesophilic bacteria. This experiment was done in order to determine if the additives would kill the microorganisms naturally occurring in actual process brine from a plant. Since the spent chill brine samples already contained NaCl citric acid and/or SLS was added to provide an effective concentration of additive. One set of these samples (samples 13-17) were inoculated with 10^3 L. monocytogenes and the other set (samples 18-22) contained only the naturally occurring organisms in the spent chill brine. […] Other antimicrobials, such as quaternary ammonium compounds can lose significant activity in hard water, often necessitating further additives, such as EDTA as a chelating agent, to maintain antimicrobial activity.
Another set of experiments was done in order to determine the effectiveness of different acids and different types of surfactants in the antimicrobial salt formulations. In one experiment, test solutions containing ˜17% by weight of formulas containing various levels of sodium chloride, 100 ppm sodium lauryl sulfate, and various levels of different acids were tested for effectiveness in killing L. monocytogenes at cold temperatures. The same test procedure was used as described above (test solutions were plated on MOX TAL (Modified Oxford Medium with a Thin Agar Layer) with TSA). The controls were a solution of pure NaCl, a solution of a blend of 100 ppm SLS in NaCl, and a solution of a blend of 0.5% citric acid, 100 ppm SLS, and 99.5% NaCl.

[3] = pH and water activity of test solutions; type: physicochemical
[4] = 17% by weight solution in soft water, −7° C., MOX
[5] = 17% by weight solution, −6.7° C., MOX with thin agar overlay
[6] = 17% by weight solution of the formula in soft water, Table 8

**Q.** With alcohol ethoxylate as the compound, how does the “effectiveness at lower concentration” value ([1]; 12.5 ppm in the hot dog plant brine) read?
**A.** as effective as 50 ppm

**Q.** And the “kill of L. monocytogenes inoculum” value ([1]; 50 ppm, within 4 hours, −20° C., hot dog plant brine)?
**A.** ~5 log

**Q.** And the “L. monocytogenes, Time 4 Hours” value ([2]; 4 hours, 17% by weight of formula of 99.7% sodium chloride, 0.3% citric acid, 500 ppm of listed surfactant, cold)?
**A.** 1 CFU/ml

**Q.** What about the “L. monocytogenes, Time 0” value ([2]; 17% by weight of formula of 99.7% sodium chloride, 0.3% citric acid, 500 ppm of listed surfactant, cold) of the same compound?
**A.** 1080 CFU/ml

**Q.** With `[Cl-].[Na+]` [100% NaCl, sodium chloride, reference compound] as the compound, how does the “L. monocytogenes, 24” value ([2]; 24, about 17.0% of formulation in hard tap water) read?
**A.** 1100 cfu/ml

**Q.** What about the “L. monocytogenes, 2 hr” value ([2]; 2 hr, about 17.0% of formulation in hard tap water) of the same compound?
**A.** 1100 cfu/ml

**Q.** What about the “L. monocytogenes, 4 hr” value [2, 4] of the same compound?
**A.** 1250 CFU/ml

**Q.** And the “L. monocytogenes, 4 hr” value [2, 5]?
**A.** ~6250 CFU/ml

**Q.** And the “L. monocytogenes, 24 hr” value [2, 4]?
**A.** 1170 CFU/ml

**Q.** And the “L. monocytogenes, 24 hr” value [2, 5]?
**A.** 2290 CFU/ml

**Q.** What about the “L. monocytogenes, Time 0” value ([2]; 17% by weight solution of the formula in soft water, −7° C., MOX) of the same compound?
**A.** 1550 CFU/ml

**Q.** And the “L. monocytogenes, Time 0” value ([2]; 17% by weight solution, −6.7° C., MOX with thin agar overlay of TSA)?
**A.** ~7000 CFU/ml

**Q.** What about the “L. monocytogenes, Time 0” value ([2]; about 17.0% of formulation in hard tap water (27 gpg), inoculated 10^3 CFU/ml) of the same compound?
**A.** 760 cfu/ml

**Q.** What about the “Water Activity” value [3, 6] of the same compound?
**A.** 0.88

**Q.** What about the pH [3, 6] of the same compound?
**A.** 7.88

**Q.** And the pH ([3]; 17% by weight solution of the formula, Table 9)?
**A.** 7.66

— US20110212235A1, “ANTIMICROBIAL SALT SOLUTIONS FOR CHEESE PROCESSING APPLICATIONS” (priority 2006, published 2011)
